Laboratory results: paper PMC9234671, “Molecular determinants of αVβ5 localization in flat clathrin lattices – role of αVβ5 in cell adhesion and proliferation” (Journal of Cell Science, 2022)

System: integrin β5 localization in PA-JEB keratinocytes
Assay: Immunofluorescence: integrin β5 clustering in FAs/FCLs, PA-JEB
Type: cell-based, human
Settings: 5 nM calyculin A versus DMSO, 30 min, 10% FCS DMEM, three independent experiments
Description: Fig. 3. Serine 759 and 762 are involved in regulating the localization of integrin β5. (A–C) Integrin β5 containing S759/762E or S759/762A mutations (A) were expressed in β5-deficient PA-JEB/β4 keratinocytes and the subcellular distribution of β5 was compared to β5-deficient keratinocytes expressing wild-type (WT) β5. Merged images show integrin β5 (green), vinculin (B) or clathrin (C) (red), actin (blue) and the cell nuclei (cyan). (D,E) Analysis of wild-type versus mutant integrin β5 clustering in FAs or FCLs. (F–I) PA-JEB/β4 keratinocytes were grown in 10% FCS-supplemented DMEM culture medium overnight and then treated with 5 nM calyculin A (Cal.A) or DMSO (vehicle control) for 30 min prior to fixation. Merged images show integrin β5 (green), vinculin (F) or clathrin (H) (red), actin (blue) and the cell nuclei (cyan), quantifications of β5 clustering in FAs or FCLs are shown in G,I. (J,K) Analysis of integrin β5 clustering in FAs or FCLs in PA-JEB keratinocytes after treatment with Cal.A. Representative confocal microscopy images are shown in Fig. S3. Scale bars: 20 μm. Data were obtained from three independent experiments. Total cells analyzed per condition: 109 (WT), 116 (S>E), 103 (S>A) (D), 81 (WT), 77 (S>E), 101 (S>A) (E), 126 and 123 (G), 111 and 101 (I), 106 and 102 (J), 115 and 109 (K). ****P<0.0001 (Mann–Whitney U-test). […]

COC[C@@H]([C@H](O)[C@H](O)C(=O)NCC[C@H](C)c1nc(/C=C/C[C@@H]2O[C@]3(C[C@@H](O)[C@@H]2C)O[C@H]([C@H](C[C@H](O)[C@H](C)[C@H](O)[C@H](C)/C=C(C)/C(C)=C/C=C/C(C)=C\C#N)OC)[C@H](OP(=O)(O)O)C3(C)C)co1)N(C)C [calyculin A]
localization of integrin β5 in FCLs, PA-JEB (colocalization with clathrin): increased the localization in FCLs | localization of integrin β5 in FAs, PA-JEB (colocalization with vinculin): reduced the localization of integrin β5 in FAs
